These results are taken from BindingDB's records for patent US10538528 (Taiho Pahrmaceutical Co., Ltd., 2020).

For this assay, the target named is RAC-alpha serine/threonine-protein kinase (Homo sapiens, UniProt P31749). As to the kind of experiment: Kinase Activity Assay. The protocol:
Akt1 was prepared and assays of inhibitory activity of the compound according to the present invention against Akt1 kinase activity in vitro were conducted according to the method described in Biochem. J., vol. 385, pp. 399-408, 2005 and Cancer Res., vol. 68, pp. 2366-2374, 2008. In the preparation of Akt1 protein, human Akt1 tagged with the middle T antigen was expressed in an insect cell Sf9, Akt1 was prepared through affinity purification and activation by PDK1, and the resultant was stored at −80° C. until the inhibition assays of the compounds. In the inhibition assay of the compounds, Akt1 and the compound according to the present invention were subjected to pre-incubation at 25° C. for 120 minutes in a reaction buffer (15 mM Tris-HCl, pH 7.5, 0.01% Tween-20, 2 mM DTT). Subsequently, biotinylated Crosstide (biotin-[…], Millipore), MgCl2, and ATP were added as substrates at the final concentration of 500 nM, 10 mM, and 150 μM, respectively, and the reaction was allowed to proceed at 25° C. for 60 minutes. […] In the end, the fluorescence levels irradiated with an excitation light of 337 nm were assayed at two different wavelength levels (i.e., 620 nm and 665 nm) using PI-HERAstar FS (BMG LABTECH) or PHERAstar (BMG LABTECH).

RAC-alpha serine/threonine-protein kinase, sequence (P31749 whole entry): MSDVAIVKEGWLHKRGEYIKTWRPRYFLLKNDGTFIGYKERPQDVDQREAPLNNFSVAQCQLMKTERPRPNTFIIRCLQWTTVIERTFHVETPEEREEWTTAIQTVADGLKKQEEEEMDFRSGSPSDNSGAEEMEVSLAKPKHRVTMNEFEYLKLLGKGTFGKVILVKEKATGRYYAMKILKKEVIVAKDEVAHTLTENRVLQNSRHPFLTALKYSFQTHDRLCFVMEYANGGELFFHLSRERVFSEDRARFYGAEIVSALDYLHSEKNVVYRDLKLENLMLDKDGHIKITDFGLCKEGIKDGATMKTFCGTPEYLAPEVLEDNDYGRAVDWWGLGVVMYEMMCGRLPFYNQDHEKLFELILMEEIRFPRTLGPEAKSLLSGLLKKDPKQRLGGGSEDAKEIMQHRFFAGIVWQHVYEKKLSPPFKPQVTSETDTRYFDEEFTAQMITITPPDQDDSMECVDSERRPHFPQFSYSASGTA

For the molecule `CN(C)CCn1cc(-c2ccc(F)c(C(F)(F)F)c2)nc1C1CCN(c2ncnc3c2C(C)(C)C(=O)N3)CC1` [US10538528, Compound A], the IC50 is 52.2 nM.
